Measurements: patent US20040059104A1, “Nucleotide mimics and their prodrugs” (priority 2002, published 2004)

Legend:
[1] = in vitro; conditions: human, pH 7.4
[2] = molecular target: T1, HIV Reverse Transcriptase (Type B, 66 kDa subunit) (Human immunodeficiency virus type 1 group M subtype B, UniProt P04585); assay: HIV Reverse Transcriptase inhibition assays (RNA-directed DNA polymerization, PicoGreen fluorescence); type: biochemical; conditions: Table 1; template (homopolymer or heteropolymer RNA) not stated; read-out: Ki, Inhibition of HIV Reverse Transcriptase by Nucleotide Mimics
T1 construct: purified HIV Reverse Transcriptase (Type B, 66 kDa subunit)
Experimental: The assays employed to measure inhibition of HIV Reverse Transcriptase (HIV RT) catalyzed/RNA-directed DNA polymerization are described below. The effectiveness of the compounds of the present invention as inhibitors of HIV RT-catalyzed DNA polymerization was measured in the following assays.
This assay was used to measure the ability of the nucleotide mimics of the present invention to inhibit the enzymatic synthesis of complementary strand DNA from a DNA-primed template of homopolymeric RNA. This assay is a modification of a published procedure (Seville, et al., “Fluorometric Assay for DNA Polymerases and Reverse Transcriptase”, BioTechniques 1996, 21, 664-72).
The compounds were tested at various concentrations up to 500 μM final concentration. DNA polymerase activity was measured in a reaction buffer containing primed-RNA template and dTTP diluted to appropriate concentrations in assay buffer. Nucleotide mimics of the present invention were diluted in buffer and pipetted into the wells of a 96-well plate. The reaction was initiated by addition of enzyme and allowed to proceed at 37° C. for 10 minutes. The reaction was quenched by addition of 5 μL 0.2 M EDTA, pH 8.0.
200 μL of diluted PicoGreen dsDNA Quantitation Reagent (Molecular Probes, Inc, Eugene, Oreg.) was added to each well of a 96-well plate and incubated at room temperature for 5 minutes. Plate wells were read on a microplate fluorometer (Molecular Devices Corp., Sunnyvale, Calif.). The wells were excited at 480 nm and the fluorescence emission intensity (RFU) was measured at 520 nm. The percentage of inhibition was calculated according to the following equation:
% Inhibition=[1−(RFU in test reaction−RFU in blank)/(RFU in control reaction−RFU in blank)]×100.
Each inhibitor was titrated over an appropriate range of concentrations, and inhibition constants were determined using the following equations:
v=Vm[S]/(Km(1+[I]/Ki)+[S])
Certain compounds of the present invention were also tested to determine their ability to inhibit HIV RT-catalyzed DNA polymerization on a heteropolymeric primed-RNA template in the presence of all four natural deoxynucleotide triphosphate (dNTP) substrates. This assay is a modification of a published procedure (Parker et al., “Mechanism of Inhibition of Human Immunodeficiency Virus Type 1 Reverse Transcriptase and Human DNA Polymerases α, β, and γ by the 5′-Triphosphates of Carbovir,3′-Azido-3′-deoxythymidine,2′-3′-Dideoxyguanosine, and 3′-Deoxythymidine”, J. Biol. Chem. 1991, 266 (3), 1754-62).
HIV RT DNA polymerase activity was measured in a reaction buffer containing primed-ribosomal RNA template and dNTPs diluted to appropriate concentrations in assay buffer and pipetted into 1.5 mL microcentrifuge tubes. Nucleotide mimics of the present invention were diluted in buffer and tested at various concentrations up to 5 μM final concentration. The reaction was initiated by addition of enzyme and allowed to proceed at 42° C. for 60 to 90 minutes. The reaction was quenched by addition of 12 μL 0.2 M EDTA, pH 8.0.
50 μL each of reaction was transferred to the well of a 96-well plate (in duplicate). 200 μL of diluted PicoGreen dsDNA Quantitation Reagent was added to each well of a 96-well plate and incubated at room temperature for 5 minutes. Plate wells were read on a microplate fluorometer. The wells were excited at 480 nm and the fluorescence emission intensity (RFU) was measured at 520 nm. The percentage of inhibition and inhibition constants […] were determined for representative compounds as described above.

[3] = test system: CEM cells; assay: Cell uptake procedure (intracellular nucleotide levels by HPLC); type: cell-based, Human; conditions: 24 hour incubation, limit of detection about 5 pmol/10^6 cells
Experimental: CEM cells were resuspended in RPMI at 1×10^7 cells/mL. The appropriate amount of each compound was added to well and then 0.5 ml of the cells was aliquoted into the appropriate number of wells of a 24-well plate and incubated the cells at 37° C. Cells were harvested after 24 hours of incubation. To harvest cells they were transferred to a microfuge tube and spun for one minute at high speed. The samples were washed in PBS containing 1 mg/ml BSA and re-centrifuged. The PBS was then aspirated and 200 μL of ice-cold 60% methanol was added to extract the nucleotides. The extracts were incubated overnight at −20° C. The next day the samples were spun at high speed in a microfuge for 20 minutes and the supernatant transferred to clean tubes and dried in the speed vac. After drying the samples were resuspended in 50 μl, filtered, and the samples then directly injected onto the HPLC. The nucleotides were analyzed using reverse phase HPLC with ion-pairing agents for separation of the nucleotides. The procedure was adapted from the following paper: Furman, et al., Proc. Natl. Acad. Sci. USA 1986, 83, 8333-8337.
The limit of detection was estimated to be 5 pmol/10^6 cells.

## [BH3-][P+](O)(OCC1OC(n2cc(C)c(=O)[nH]c2=O)CC1N=[N+]=[N-])OP(=O)(O)C(F)(F)P(=O)(O)O (single isomer, unassigned) [Compound 27-isomer 1, 3′-Azido-3′-deoxythymidine 5′-α-P-borano-β,γ-(difluoromethylene)triphosphate]
[1]
  half-life at 500 μM: > 48 h
[2]
  Ki: 8 nM
[3]; incubation concentration 25 μM
  Intracellular levels of 27: BLD
[3]; incubation concentration 50 μM
  Intracellular levels of 27: 5.6 pmol/10^6 cells
[3]; incubation concentration 100 μM
  Intracellular levels of 27: 10.6 pmol/10^6 cells
